Reference: the supplement of paper PMC9262897, “Low-cost anti-mycobacterial drug discovery using engineered E. coli” (Nature Communications, 2022)

How the values were obtained:
[1] = tested on: E. coli wild-type control; experiment: growth (OD600 after 10 h); higher = more growth
Experimental: (§1)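 Chemical-genetic validation profiles: TESEC strains (Mtb Asd or DapB, arabinose-inducible) or the wild-type control grown in a two-dimensional dilution series of drug (µM) and arabinose. Growth is read as OD600 after 10 h in triplicate.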

[2] = tested on: E. coli TESEC strain (Mtb target enzyme); experiment: growth (OD600 after 10 h); higher = more growth
Experimental: as §1

CC/C(=C(/CC)c1ccc(O)cc1)c1ccc(O)cc1 [Diethylstilbestrol] (TESEC target enzyme: Mtb Asd)
growth
Conditions	drug 0.7 µM	drug 1.5 µM	drug 3.5 µM	drug 7.8 µM	drug 17.6 µM	drug 39.5 µM	drug 88.9 µM
[1], arabinose 15560 nM	0.278	0.244	0.211	0.134	0.106	0.077	–
[1], arabinose 28008 nM	0.283	0.225	0.192	0.208	0.109	0.0887	–
[1], arabinose 50414 nM	0.271	0.23	0.192	0.149	0.185	0.0973	–
[1], arabinose 90744 nM	0.282	0.238	0.205	0.155	0.0906	0.075	–
[1], arabinose 163340 nM	0.245	0.22	0.207	0.163	0.11	0.108	–
[1], arabinose 294012 nM	0.224	0.222	0.201	0.151	0.0517	0.0476	–
[1], arabinose 529221 nM	0.189	0.16	0.141	0.123	0.0936	0.139	–
[1], arabinose 952599 nM	0.139	0.112	0.103	0.132	0.0957	0.0506	0.108
[1], arabinose 1714678 nM	0.118	0.104	0.106	0.112	0.124	0.147	0.119
[1], arabinose 3086420 nM	0.119	0.108	0.114	0.103	0.0984	0.114	0.111
[1], arabinose 5555556 nM	0.128	0.112	0.119	0.119	0.0951	0.0913	0.0621
[1], arabinose 10000000 nM	0.122	0.118	0.1329	0.118	0.13	0.117	–
[2], arabinose 15560 nM	0.236	0.214	–	–	–	–	–
[2], arabinose 28008 nM	0.223	0.157	–	–	–	–	–
[2], arabinose 50414 nM	0.238	0.191	–	–	–	–	–
[2], arabinose 90744 nM	0.252	0.218	–	–	–	–	–
[2], arabinose 163340 nM	0.254	0.227	–	–	–	–	–
[2], arabinose 294012 nM	0.29	0.222	–	–	–	–	–
[2], arabinose 529221 nM	0.207	0.214	–	–	–	–	–
[2], arabinose 952599 nM	0.2	0.228	–	–	–	–	–
[2], arabinose 1714678 nM	0.2038	0.208	–	–	–	–	–
[2], arabinose 3086420 nM	0.177	0.202	–	–	–	–	–
[2], arabinose 5555556 nM	0.168	0.198	–	–	–	–	–
[2], arabinose 10000000 nM	0.174	0.184	–	–	–	–	–

N=C(N)c1ccc(OCCCCCOc2ccc(C(=N)N)cc2)cc1 [Pentamidine] (TESEC target enzyme: Mtb DapB)
growth
Conditions	drug 0.7 µM	drug 1.5 µM	drug 3.5 µM	drug 7.8 µM	drug 17.6 µM	drug 39.5 µM	drug 88.9 µM
[1], arabinose 15560 nM	0.275	0.32	0.321	0.289	0.269	0.258	–
[1], arabinose 28008 nM	0.317	0.309	0.301	0.293	0.231	0.259	–
[1], arabinose 50414 nM	0.321	0.318	0.304	0.291	0.235	0.233	–
[1], arabinose 90744 nM	0.29	0.289	0.305	0.312	0.261	0.246	–
[1], arabinose 163340 nM	0.311	0.319	0.308	0.271	0.257	0.256	–
[1], arabinose 294012 nM	0.207	0.29	0.277	0.313	0.271	0.249	–
[1], arabinose 529221 nM	0.168	0.225	0.257	0.302	0.257	0.251	–
[1], arabinose 952599 nM	0.163	0.141	0.201	0.236	0.221	0.239	0.206
[1], arabinose 1714678 nM	0.137	0.161	0.193	0.18	0.179	0.231	0.161
[1], arabinose 3086420 nM	0.13	0.149	0.156	0.185	0.113	0.145	0.157
[1], arabinose 5555556 nM	0.125	0.126	0.177	0.203	0.12	0.136	0.16
[1], arabinose 10000000 nM	0.115	0.151	0.13	0.16	0.129	0.131	–
[2], arabinose 15560 nM	0.117	0.131	–	–	–	–	–
[2], arabinose 28008 nM	0.207	0.18	–	–	–	–	–
[2], arabinose 50414 nM	0.186	0.187	–	–	–	–	–
[2], arabinose 90744 nM	0.207	0.195	–	–	–	–	–
[2], arabinose 163340 nM	0.225	0.21	–	–	–	–	–
[2], arabinose 294012 nM	0.218	0.235	–	–	–	–	–
[2], arabinose 529221 nM	0.208	0.192	–	–	–	–	–
[2], arabinose 952599 nM	0.2	0.225	–	–	–	–	–
[2], arabinose 1714678 nM	0.16	0.182	–	–	–	–	–
[2], arabinose 3086420 nM	0.133	0.153	–	–	–	–	–
[2], arabinose 5555556 nM	0.131	0.146	–	–	–	–	–
[2], arabinose 10000000 nM	0.127	0.124	–	–	–	–	–

Nc1nc2ccc(OC(F)(F)F)cc2s1 [Riluzole] (TESEC target enzyme: Mtb Asd)
growth
Conditions	drug 1.7 µM	drug 3.9 µM	drug 8.7 µM	drug 19.5 µM	drug 43.9 µM	drug 98.8 µM	drug 222.2 µM
[1], arabinose 15560 nM	0.226	0.226	0.232	0.219	0.202	0.188	–
[1], arabinose 28008 nM	0.2085	0.207	0.219	0.223	0.208	0.197	–
[1], arabinose 50414 nM	0.234	0.217	0.222	0.235	0.207	0.202	–
[1], arabinose 90744 nM	0.232	0.243	0.222	0.286	0.22	0.205	–
[1], arabinose 163340 nM	0.227	0.236	0.232	0.237	0.217	0.216	–
[1], arabinose 294012 nM	0.229	0.227	0.2601	0.231	0.221	0.216	–
[1], arabinose 529221 nM	0.227	0.236	0.226	0.208	0.221	0.231	–
[1], arabinose 952599 nM	0.2317	0.226	0.263	0.207	0.233	0.235	0.123
[1], arabinose 1714678 nM	0.195	0.2	0.235	0.193	0.233	0.213	0.115
[1], arabinose 3086420 nM	0.148	0.149	0.183	0.214	0.236	0.231	0.122
[1], arabinose 5555556 nM	0.154	0.157	0.196	0.157	0.171	0.19	0.126
[1], arabinose 10000000 nM	0.148	0.165	0.146	0.21	0.162	0.202	–
[2], arabinose 15560 nM	0.165	0.155	–	–	–	–	–
[2], arabinose 28008 nM	0.133	0.157	–	–	–	–	–
[2], arabinose 50414 nM	0.166	0.157	–	–	–	–	–
[2], arabinose 90744 nM	0.192	0.171	–	–	–	–	–
[2], arabinose 163340 nM	0.22	0.199	–	–	–	–	–
[2], arabinose 294012 nM	0.261	0.239	–	–	–	–	–
[2], arabinose 529221 nM	0.271	0.263	–	–	–	–	–
[2], arabinose 952599 nM	0.28	0.312	–	–	–	–	–
[2], arabinose 1714678 nM	0.284	0.319	–	–	–	–	–
[2], arabinose 3086420 nM	0.246	0.237	–	–	–	–	–
[2], arabinose 5555556 nM	0.236	0.223	–	–	–	–	–
[2], arabinose 10000000 nM	0.215	0.224	–	–	–	–	–
